Patent US11325899B2, “Benzofurane and benzothiophene derivatives as PGE2 receptor modulators” (IDORSIA PHARMACEUTICALS LTD, priority 2017, dated 2022)

Columns and labels:
[1] = target: T1, PTGER2 (EP2) (Homo sapiens, UniProt P43116); test: hEP2 b-arrestin assay (PathHunter HEK 293 PTGER2 b-arrestin cells); format: cell-based; settings: antagonistic activity, beta-arrestin assay; read-out: hEP2 b-arr IC50
T1 construct: host or cells: HEK 293 (PathHunter PTGER2 b-arrestin cell line)
Method: (§1) The antagonistic activities of the compounds of formula (I) on the EP2 and EP4 receptors are determined in accordance with the following experimental method.
(§2) The assay is using the PathHunter™ HEK 293 PTGER2 and PTGER4 b-arrestin cell lines from DiscoverX. The system is based on the Enzyme Fragment Complementation Technology. Two complementing fragments of the b-galactosidase enzyme are expressed within stably transfected cells. The larger portion of b-gal, termed EA for Enzyme Acceptor, is fused to the C-terminus of b-arrestin 2. The smaller fragment, termed ProLink™ tag, is fused to PTGER2 (EP2) or PTRGER4 (EP4) at the C-terminus. Upon activation, b-arrestin is recruited which forces the interaction of ProLink and EA, allowing complementation of the two fragments of b-gal and the formation of a functional enzyme which is capable of hydrolysing the substrate and generating a chemiluminescent signal.
(§3) The HEK 293 PTGER2 b-arrestin cells (DiscoverX 93-021-4C1) are detached from culture dishes with a cell dissociation buffer (Invitrogen, 13151-014), and collected in growing medium (GM: DMEM+Glutamax-I (Invitrogen 32430)/10% FCS, 1% Penicilin/streptomycin). 5000 cells per well of a 384 well plate (white with white bottom Greiner 781080) are seeded in 20 ul per well of GM. Plate is incubated at 37° C., 5% C02 for 24 hours.
(§4) Stock solutions of test compounds are made at a concentration of 10 mM in DMSO, and serially diluted in DMSO to concentrations required for inhibition dose response curves (tested concentration range 10 μM-2 nM or 1 μM-0.2 nM).
PGE2 (Cayman 14010, stock solution: 10 mM in DMSO) is used as agonist at 5 μM final concentration, corresponding to EC80.
Five microliters of diluted compounds are transferred into the assay plate. Plate is pre-incubated 15 minutes at 37° C. Then five microliters of PGE2 (final conc. 5 μM) are transferred into the assay plate. Plate is incubated 120 minutes at 37° C.
(§5) PathHunter Glo Detection Kit components are thawed and mix according to manufacturer's instructions: 1 part Galacton Star Substrate with 5 parts Emerald II™ Solution, and 19 parts of PathHunter Cell Assay Buffer, respectively. Twelve μl of reagent are transferred to the assay plate and incubate for 1 hour at room temperature in the dark. Luminescence counts are read on a BMG Fluostar Optima reader according to manufacturer's instructions.
(§6) For each compound concentration calculate of the percentage of activity compared to DMSO control value as average±STDEV. (each concentration is measured in duplicate)
(§7) IC50 values and curves are generated with XLfit software (IDBS) using Dose-Response One Site model 203. When compounds were measured multiple times, mean values are given.

[2] = target: T2, PTGER4 (EP4) (Homo sapiens, UniProt P35408); test: hEP4 b-arrestin assay (PathHunter HEK 293 PTGER4 b-arrestin cells); format: cell-based; settings: antagonistic activity, beta-arrestin assay; read-out: hEP4 b-arr IC50
T2 construct: host or cells: HEK 293 (PathHunter PTGER4 b-arrestin cell line)
Method: as §1, §2
as §3, with “PTGER4” for “PTGER2”, “93-030-4C1)” for “93-021-4C1)”
as §4
PGE2 (Cayman 14010, stock solution: 100 uM in DMSO) is used as agonist at 20 nM final concentration, corresponding to EC80.
Five microliters of diluted compounds are transferred into the assay plate. Plate is pre-incubated 15 minutes at 37° C. Then five microliters of PGE2 (final conc. 20 nM) are transferred into the assay plate. Plate is incubated 120 minutes at 37° C.
as §5, §6, §7

T1 sequence (P43116 whole entry): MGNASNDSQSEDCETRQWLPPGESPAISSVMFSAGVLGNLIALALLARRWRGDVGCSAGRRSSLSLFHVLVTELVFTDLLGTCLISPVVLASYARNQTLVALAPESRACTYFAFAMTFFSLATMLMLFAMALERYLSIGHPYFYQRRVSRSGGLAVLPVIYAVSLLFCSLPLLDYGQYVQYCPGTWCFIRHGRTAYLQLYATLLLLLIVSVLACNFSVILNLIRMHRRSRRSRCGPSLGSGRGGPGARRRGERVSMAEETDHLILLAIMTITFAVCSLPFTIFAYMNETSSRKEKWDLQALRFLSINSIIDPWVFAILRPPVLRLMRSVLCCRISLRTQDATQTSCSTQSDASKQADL
T2 sequence (P35408 whole entry): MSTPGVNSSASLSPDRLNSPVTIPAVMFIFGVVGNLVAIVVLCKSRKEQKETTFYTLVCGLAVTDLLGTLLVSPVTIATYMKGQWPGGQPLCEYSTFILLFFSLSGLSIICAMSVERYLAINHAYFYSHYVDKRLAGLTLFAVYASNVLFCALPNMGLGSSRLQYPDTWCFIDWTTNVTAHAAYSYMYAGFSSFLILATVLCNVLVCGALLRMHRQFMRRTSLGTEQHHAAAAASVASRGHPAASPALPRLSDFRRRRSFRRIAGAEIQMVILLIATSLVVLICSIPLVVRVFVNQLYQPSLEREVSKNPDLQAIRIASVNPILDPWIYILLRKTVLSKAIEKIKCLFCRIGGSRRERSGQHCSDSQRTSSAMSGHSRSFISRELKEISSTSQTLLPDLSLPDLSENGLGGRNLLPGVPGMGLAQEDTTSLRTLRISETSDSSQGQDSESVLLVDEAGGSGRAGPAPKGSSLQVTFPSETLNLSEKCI

Row | SMILES | IC50 [1] | IC50 [2]
1 | CCc1cc(-c2cc(NCCc3c(C)sc4c(C)cc(F)cc34)ncn2)ccc1CC(=O)O [Example 185, (2-Ethyl-4-{6-[2-(5-fluoro-2,7-dimethyl-benzo[b]thiophen-3-yl)-ethylamino]-pyrimidin-4-yl}-phenyl)-acetic acid] | 50 nM | 134 nM
2 | CCc1cc(-c2cc(NCCc3c(C)sc4c(C)cc(F)cc34)ncn2)ccc1C(=O)OC [Example 181, 2-Ethyl-4-{6-[2-(5-fluoro-2,7-dimethyl-benzo[b]thiophen-3-yl)-ethylamino]-pyrimidin-4-yl}-benzoic acid methyl ester] | 126 nM | 423 nM
3 | Cc1sc2c(C)cc(F)cc2c1CCNc1cc(-c2ccc(-c3noc(=O)[nH]3)cc2)ncn1 [Example 177, 3-(4-{6-[2-(5-Fluoro-2,7-dimethyl-benzo[b]thiophen-3-yl)-ethylamino]-pyrimidin-4-yl}-phenyl)-[1,2,4]oxadiazol-5(4H)-one [tautomeric form: 3-(4-{6-[2-(5-Fluoro-2,7-dimethyl-benzo[b]thiophen-3-yl)-ethylamino]-pyrimidin-4-yl}-phenyl)-[1,2,4]oxadiazol-5-ol]] | 47 nM | 212 nM
4 | Cc1sc2c(C)cc(F)cc2c1CCNc1cc(-c2ccc(/C=C/C(=O)O)cc2)ncn1 [Example 204, (E)-3-(4-{6-[2-(5-Fluoro-2,7-dimethyl-benzo[b]thiophen-3-yl)-ethylamino]-pyrimidin-4-yl}-phenyl)-acrylic acid] | 108 nM | 1030 nM
5 | Cc1sc2c(C)cc(F)cc2c1CCNc1cc(-c2ccc3[nH]ccc3c2)ncn1 [Example 183, [2-(5-Fluoro-2,7-dimethyl-benzo[b]thiophen-3-yl)-ethyl]-[6-(1H-indol-5-yl)-pyrimidin-4-yl]-amine] | 40 nM | 210 nM
6 | CCOc1c(CC(=O)O)ccc(-c2cc(NCCc3c(C)sc4c(C)cc(F)cc34)ncn2)c1F [Example 216, (2-Ethoxy-3-fluoro-4-{6-[2-(5-fluoro-2,7-dimethyl-benzo[b]thiophen-3-yl)-ethylamino]-pyrimidin-4-yl}-phenyl)-acetic acid] | 41 nM | 234 nM
7 | CCCc1cc(-c2cc(NCCc3c(C)sc4c(C)cc(F)cc34)ncn2)ccc1C(N)=O [Example 206, 4-{6-[2-(5-Fluoro-2,7-dimethyl-benzo[b]thiophen-3-yl)-ethylamino]-pyrimidin-4-yl}-2-propyl-benzamide] | 10 nM | 288 nM
8 | CCSc1cc(-c2cc(NCCc3c(C)sc4c(C)cc(F)cc34)ncn2)ccc1C(=O)O [Example 179, 2-Ethylsulfanyl-4-{6-[2-(5-fluoro-2,7-dimethyl-benzo[b]thiophen-3-yl)-ethylamino]-pyrimidin-4-yl}-benzoic acid] | 8 nM | 184 nM
9 | CCCc1cc(-c2cc(NCCc3c(C)sc4c(C)cc(F)cc34)ncn2)ccc1C1(C(=O)O)CC1 [Example 218, 1-(4-{6-[2-(5-Fluoro-2,7-dimethyl-benzo[b]thiophen-3-yl)-ethylamino]-pyrimidin-4-yl}-2-propyl-phenyl)-cyclopropanecarboxylic acid] | 95 nM | 143 nM
10 | CCc1cc(-c2cc(NCCc3c(C)sc4c(C)cc(F)cc34)ncn2)ccc1C(=O)O [Example 193, 2-Ethyl-4-{6-[2-(5-fluoro-2,7-dimethyl-benzo[b]thiophen-3-yl)-ethylamino]-pyrimidin-4-yl}-benzoic acid] | 18 nM | 667 nM
11 | CCCc1cc(-c2cc(NCCc3c(C)sc4c(C)cc(F)cc34)ncn2)sc1CC(=O)O [Example 219, (5-{6-[2-(5-Fluoro-2,7-dimethyl-benzo[b]thiophen-3-yl)-ethylamino]-pyrimidin-4-yl}-3-propyl-thiophen-2-yl)-acetic acid] | 41 nM | 211 nM
12 | CCOc1cc(-c2cc(NCCc3c(C)sc4c(C)cc(F)cc34)ncn2)ccc1C(N)=O [Example 213, 2-Ethoxy-4-{6-[2-(5-fluoro-2,7-dimethyl-benzo[b]thiophen-3-yl)-ethylamino]-pyrimidin-4-yl}-benzamide] | 10 nM | 405 nM
13 | Cc1sc2c(C)cc(F)cc2c1CCNc1cc(-c2cc3cccc(C(=O)O)c3s2)ncn1 [Example 222, 2-{6-[2-(5-Fluoro-2,7-dimethyl-benzo[b]thiophen-3-yl)-ethylamino]-pyrimidin-4-yl}-benzo[b]thiophene-7-carboxylic acid] | 14 nM | 453 nM
14 | Cc1sc2c(C)cc(F)cc2c1CCNc1cc(-c2ccc(C(N)=O)cc2)ncn1 [Example 178, 4-{6-[2-(5-Fluoro-2,7-dimethyl-benzo[b]thiophen-3-yl)-ethylamino]-pyrimidin-4-yl}-benzamide] | 48 nM | 331 nM
15 | COc1cc(-c2cc(NCCc3c(C)sc4c(C)cc(F)cc34)ncn2)ccc1CCC(=O)O [Example 223, 3-(4-{6-[2-(5-Fluoro-2,7-dimethyl-benzo[b]thiophen-3-yl)-ethylamino]-pyrimidin-4-yl}-2-methoxy-phenyl)-propionic acid] | 35 nM | 487 nM
16 | CCCc1cc(-c2cc(NCCc3c(C)sc4c(C)cc(F)cc34)ncn2)ccc1C(=O)NCCO [Example 209, 4-{6-[2-(5-Fluoro-2,7-dimethyl-benzo[b]thiophen-3-yl)-ethylamino]-pyrimidin-4-yl}-N-(2-hydroxy-ethyl)-2-propyl-benzamide] | 8 nM | 280 nM
17 | Cc1[nH]c(-c2cc(NCCc3c(C)sc4c(C)cc(F)cc34)ncn2)cc1C(=O)O [Example 205, 5-{6-[2-(5-Fluoro-2,7-dimethyl-benzo[b]thiophen-3-yl)-ethylamino]-pyrimidin-4-yl}-2-methyl-1 H-pyrrole-3-carboxylic acid] | 74 nM | 771 nM
18 | Cc1sc2c(C)cc(F)cc2c1CCNc1cc(-c2ccc(CC(=O)O)c(OC(C)C)c2)ncn1 [Example 192, (4-{6-[2-(5-Fluoro-2,7-dimethyl-benzo[b]thiophen-3-yl)-ethylamino]-pyrimidin-4-yl}-2-isopropoxy-phenyl)-acetic acid] | 72 nM | 261 nM
19 | Cc1sc2c(C)cc(F)cc2c1CCNc1cc(-c2ccc(NC=O)cc2)ncn1 [Example 188, N-(4-{6-[2-(5-Fluoro-2,7-dimethyl-benzo[b]thiophen-3-yl)-ethylamino]-pyrimidin-4-yl}-phenyl)-formamide] | 98 nM | 694 nM
